From patent publication US10676747B2, “Methods for improving cognitive function via modulation of quinone reductase 2” (Carmel-Haifa University Economic Corp. Ltd., priority 2014, dated 2020)

What was measured:
QR2 mRNA [1] = assay: QR2 mRNA expression in primary cortical cells treated with QR2 shRNA lentiviral clones; assay type: cell-based; settings: rat primary cortical cells, week long incubation, compared to scrambled virus; FIG. 8
Procedure: (§1) mRNA quantification—We used the RNeasy lipid tissue kit (QIAGEN) according to the manufacturer's instructions in order to extract the RNA. We then evaluated RNA concentration and purity using a nanodrop spectrophotometer.
(§2) The cDNA synthesis was accomplished using the High Capacity Reverse Transcription Kit (ABI) according to the manufacturer's instructions. The reaction was carried out in a total volume of 20 μl on 1000 ng of RNA.
(§3) The qPCR reaction was performed in a total volume of 10 μl on 10 ng of cDNA. We used the following TaqMan assays (Applied Biosystems): QR2 (Rn01434728_g1), NQO1 (RN00566528_m1), glyceraldehyde-3-phosphate dehydrogenase, GAPDH (Rn01775763_g1). The reactions were carried out per the manufacturer's instructions.
(§4) Real Time-PCR analysis was performed using the PCR System STEP-ONE plus (Applied Biosystems). Relative mRNA levels were calculated using the ΔΔCt method using GAPDH as a normalizing gene: ΔΔCt=[(Ct(gene of interest)−Ct(GAPDH)) of the untreated group]−[(Ct(gene of interest)−Ct(GAPDH)) of the treated group]. The fold increase is then calculated as such: fold increase=2−ΔΔCt. […]
For this purpose, we evaluated three different clones (Sigma-Aldrich, Israel). […] We then evaluated QR2 mRNA expression.

rats [2] = assay: Novel taste (saccharin) choice test after injection of QR2 shRNA virus into the IC; assay type: in vivo, rat; settings: lentivirus injected into IC; choice test three days after saccharin; mean+/-SEM, n=12
Procedure: Micro-infusion—Rats were anesthetized with Equithesin (0.45 ml/100 g) (2.12% w/v MgSO4, 10% v/v ethanol, 39.1% v/v 1,2,-propranolol, 0.98% w/v sodium pentobarbital, and 4.2% w/v chloral hydrate), restrained in a stereotactic apparatus (Stoelting, USA) and injected bilaterally with a 10 mm 28 gauge injection cannula aimed at the rat gustatory cortex (anteroposterior, +1.2 mm relative to bregma; lateral, ±5.5 mm; ventral, −5.5 mm; (Paxinos and Watson, 1986). The injection cannula was connected via PE20 tubing to a Hamilton microsyringe driven by a micro-infusion pump (CMA/100; Carnegie Medicin). […] The injection cannula was left in position before withdrawal for an additional 1 min to minimize dragging of the injected liquid along the injection tract. To avoid lateral bias, animals were injected interchangeably between both sides. Following the microsurgery, animals were injected i.m. with antibiotic and were allowed to recuperate for one week. […]
Preference index—the preference index was calculated by the following equation [(total novel taste liquid ingested/(novel taste liquid ingested+water ingested))*100]. […]

rats [3] = assay: Memory extinction following a CTA paradigm in QR2 shRNA injected animals; assay type: in vivo, rat; settings: repeated measure ANOVA; FIG. 11
Procedure: Aversion index—the aversion index is calculated by the following equation [(total water ingested/(novel taste liquid ingested+water ingested))*100].
Conditioned Taste Aversion (CTA)—Two groups of rats were deprived from water for a period of 24 hours. This was followed by 3 days of restriction were the rats received two pipettes each filled with 10 ml of water for 20 minutes each day. On the fourth day both groups received two pipettes each filled with 10 ml of an unfamiliar tasting liquid, either saccharine (0.1% w/v) or NaCl (0.3% w/v), for 20 minutes. Forty minutes following the exposure to the novel liquid the rats in the experimental group received an injection of LiCl (prepared in double distilled water (DDW)) (2% bodyweight, intraperitoneally (i.p.)) and those in the control received an injection of physiological saline (2% bodyweight, i.p.).

QR2 mRNA [4] = assay: QR2 mRNA expression in the IC after stereotactic injection of QR2 shRNA virus (RT-PCR); assay type: in vivo, rat; settings: compared to scrambled virus group, n=12, p<0.005; FIG. 12
Procedure: Tissue extraction—Following the learning protocol the insular cortex was removed by hand. The insular cortex was identified through cortical landmarks, the rhinal fissure and the medial cerebral artery. The insular cortex was immediately placed in liquid nitrogen and then stored at −80° C.
as §1, §2, §3, §4

mice [5] = assay: Delay fear conditioning test after QR2 shRNA lentivirus injection into the CA1 region of hippocampus; assay type: in vivo, mouse
Procedure: M&M—A delay fear conditioning test was performed on two groups of mice (10 mice per group) injected with Lentivirus encoding the QR2 shRNA or a scrambled sequence one week before the experiment. The Lentivirus was injected in to the CA1 region of hippocampus. The conditioning apparatus used was four New Biotechnology Ltd. (NBT) chambers, (Panlab Harvard Apparatus, Barcelona, Spain) consisting of a Plexiglas walls (25×25×25 cm) with a 16 stainless steel rods grid floor, a dim light and speakers. The apparatus was located inside a sound proof larger, insulated plastic cabinet that excluded outside light and noise. On day 1 (training), the mice were transported to the nearby testing room and set next to the conditioning chambers for a 5 min resting period with lights off. Each chamber was wiped with 30% ethanol solution before training and each mouse was placed in the chamber individually during training. For delay fear conditioning, mice were pre-exposed to an experimental chamber for 5 min, and received 5 trials in which 4000 Hz, tone, applied for 10 seconds at 76 dB (conditioned stimuli; CS) co-terminated by a 0.36 mA foot shock applied for 2 second (unconditioned stimuli; US), separated by 3.5 min inter-trial interval (ITI). After the last training trial, the mice were left in the conditioning chamber for another 120 s and were then placed back in their home cages.
On day 2 and day 8 (1 week later) (context fear test), the mice were returned to the same experimental chamber with the same contextual configuration for 10 min. Freezing behavior was recorded. On the third day and day 9 (1 week later) (tone fear test), the mice were set next to the conditioning chambers for a 5 min resting period with lights on, then mice were placed into the same experimental chamber, with novel contextual configuration (no light, and a smooth black Plexiglas floor), for 5 min during which freezing was record under infra-red light source. […] The animals' behavior was recorded, and the data analyzed by Freeze Frame 3.0 software (Coulbourn Instruments, PA, USA). […]

mice [6] = assay: Morris Water Maze after QR2 shRNA injection into hippocampus (CA1 region); assay type: in vivo, mouse
Procedure: M&M—Spatial reference memory in the Morris Water Maze (MWM) was determined as previously described (Vorhees, Williams 2006). The pool was 1.2 m in diameter and the water was rendered opaque by the addition of white tempera. Water temperature was kept at 22° C. The platform was 8 cm in diameter. All behavioral tests and trials were performed at the same time of day (±1 hr) during the animal's light phase. The mice were acclimatized in testing room for 15 min. Mice were trained in four trials per day (trial length 60 s with 30 s ITI), over 4 consecutive days. If an animal fails to locate the platform within training time, it is usually picked up and placed on the platform for 15 s. For probe trials, the platform was removed from the maze and the animals were allowed to search for 60 s. Learning was evaluated by monitoring escape latencies to a hidden (submerged) platform and time spent in each quadrant of the maze (quadrant occupancy) with an automated video tracking system, and the data analyzed by EthoVision XT9 (Noldus Information Technology, USA). Swimming speed was similar in QR2 shRNA and scrambled injected animals (data not shown).

v394: shRNA construct directed against mouse QR2 (Sigma-Aldrich clone), subcloned into lentiviral plasmid pFUGW; chosen clone used for the injected virus (CCGGCAGUCACUGUGUCUGAUUUAUCUCGAGAUAAAUCAGACACAGUGACUGUUUUUG)
QR2 mRNA expression (QR2 mRNA [1]): slightly more effective | Preference index (PI) (rats [2]): 76.3+/−2.14 | Memory extinction (aversion index over time) (rats [3]): significant extinction on Day 3 | QR2 mRNA expression in the IC (QR2 mRNA [4]): significantly lower QR2 mRNA expression | Long term memory (response to conditioned context and tone) (mice [5]; 1 week later, vs scrambled sequence, context p=0.03, tone p=0.031): enhanced long term memory | Freezing response, context test (mice [5]; day 2, vs scrambled sequence, n=10, p=0.031): froze significantly frequently | Freezing response, tone test (mice [5]; day 3, vs scrambled sequence, n=10, p=0.003): froze significantly frequently | Quadrant occupancy (time in target quadrant), probe test (mice [6]; after completion of training, vs scrambled injected mice, p=0.031): preferential quadrant occupancy | Escape latency to hidden platform (mice [6]; day 4 of training, vs scrambled injected mice, p=0.036): shorter latency | Swimming speed (mice [6]; vs scrambled injected animals, data not shown): similar | Crossings of the platform location, probe test (mice [6]; vs scrambled injected mice, p=0.029): more times
